{"source": "patent US20260272933A1", "about": "“USE OF HETEROCYCLIC COMPOUND IN TREATMENT OF INTERSTITIAL PNEUMONIA” (SUZHOU KINTOR PHARMACEUTICALS, INC., priority 2023, published 2026)", "key": {"[1]": {"tested_on": "Bleomycin-induced unilateral pulmonary fibrosis model in SD rats", "assay": "Bleomycin-induced unilateral pulmonary fibrosis model, HE staining injury and inflammation score of terminal bronchioles and small pulmonary arteries", "format": "in vivo", "details": "for Injury Score of Terminal Bronchioles and Accompanying Small Pulmonary Arteries, At Margin Lesion / Injury Score of Terminal Bronchioles and Accompanying Small Pulmonary Arteries, Within Lesion: p.o., 28 days from Day 8, Mean ± SEM, p < 0.001 vs. Model group; for Injury Score of Terminal Bronchioles and Accompanying Small Pulmonary Arteries, At Margin Lesion: model group 5.44 ± 0.12; for Injury Score of Terminal Bronchioles and Accompanying Small Pulmonary Arteries, Within Lesion: model group 9.44 ± 0.22", "from_the_text": "(§1) 55 SD rats were purchased from Zhejiang Charles River Laboratory Animal Technology Co., Ltd. and housed in the SPF-grade barrier system of KCl Biotechnology (Suzhou) Co., Ltd. The animal use certification number was SYXK (Su) 2017-0041, the temperature, humidity and light control system follows international standards.\n(§2) Anesthesia: 1-2.5% isoflurane was used for respiratory anesthesia to maintain deep anesthesia of the animals.\n(§3) After the rats were under surgical anesthesia, the experimental model was constructed according to the guidelines for establishing the unilateral pulmonary fibrosis model in KCl. The skin was shaved, locally disinfected, and then a layered incision was made to expose and preserve the trachea. Bleomycin (dose: 3 mg/kg) was administered via intratracheal instillation to induce left lung fibrosis. After confirming no bleeding, the incision was closed layer-by-layer using 2-0 silk surgical sutures. After the surgery, the animals were placed on a 37° C. electric heating pad until fully recovered. Normal feeding and drinking were confirmed before returning the animals to standard housing. Starting from the day of modeling, meloxicam (1 mg/kg) was administered subcutaneously once daily for three consecutive days for postoperative analgesia.\n(§4) Prior to modeling, animals were randomly divided into five groups based on body weight, as follows: Sham model group (normal group) (n=10), model group (n=10), Nintedanib 100 mg/kg, qd group (n=10), Compound B-1-1 20 mg/kg, bid group (n=10), Compound B-1-1 40 mg/kg, bid group (n=10). The administration began on the 8th day after modeling. • Nintedanib: administered orally, once daily for 28 consecutive days; • Compound B-1-1: administered orally, twice daily for 28 consecutive days.\n(§5) After euthanasia, animals were perfused systemically with pre-cooled PBS at 4° C. The lungs were collected, and the left lung lobes were perfused with formalin. Histopathological examinations were performed using HE staining and Masson Trichrome staining. HE staining was used to evaluate the extent of bronchial and small pulmonary artery injury and inflammation, while Masson Trichrome staining assessed the degree of pulmonary fibrosis.\n(§6) The entire left lung was dehydrated and embedded in paraffin. Paraffin sections of the entire left lung were prepared at a thickness of 3 μm. HE-stained sections were used for pathological analysis and scoring of injury and inflammatory changes in terminal bronchioles and accompanying small pulmonary arteries within and surrounding the lesion (Tables 4-2 and 4-3). Masson Trichrome staining was performed on the left lung paraffin sections, and the stained sections were scanned using the Nano Zoomer Digital Pathology scanner (S210) to obtain whole-slide images. Ten areas of 1 mm^2 each were randomly selected within the lesion area, and semi-quantitative scoring was conducted under a double-blind condition according to the Ashcroft scoring system (Table 4-4).\n(§7) Statistical analysis was performed using Prism 6.0 software. Data are expressed as mean±SEM (standard error). One-way ANOVA was used for the analysis, and Tukey's method was selected for the comparison of differences between groups; when comparing between two groups, a T-test was used for two-tailed detection; when p<0.05, there was a significant difference between the two groups. In cases where outliers were suspected due to large within-group variability, the Identify Outliers function in GraphPad Prism 6.0 was used to detect and exclude outlier values. For data analysis purposes, all relevant data from any animal excluded from the efficacy evaluation were also omitted from statistical analysis."}, "[2]": {"tested_on": "Bleomycin-induced unilateral pulmonary fibrosis model in SD rats", "assay": "Bleomycin-induced unilateral pulmonary fibrosis model, Masson Trichrome staining, Ashcroft fibrosis score of left lung", "format": "in vivo", "details": "for Fibrosis Score (Ashcroft), left lung: p.o., 28 days from Day 8, model group 3.79 ± 0.08, p < 0.001 vs. Model group", "from_the_text": "as §1, §2, §3, §4, §5, §6, §7"}, "GLi1": {"tested_on": "GLi1", "assay": "Western blot: degradation of TGF-β-induced GLi1 protein in A549 cells", "format": "cell-based, Human", "details": "24-hour treatment, FIG. 43", "protocol": "(§8) Human lung carcinoma cells (A549 cell line) were purchased from Shanghai Cell Bank of Chinese Academy of Sciences.\n(§9) The cells were cultured in RPMI (Roswell Park Memorial Institute)-1640 medium supplemented with 10% FBS (Fetal Bovine Serum) and 1% penicillin-streptomycin. The cell culture conditions were 5% CO2 and […] Upon reaching approximately 80% confluence, the cells were subcultured at a 1:3 ratio.\n(§10) A549 cells in the exponential growth phase were digested and plated into 6-well plates at 1×10^6 cells per well. After one day of growth, TGF-β (transforming growth factor-β) and different concentrations of compound B-1-1 were added to culture the cells. Protein was extracted 24 hours after drug treatment.\n(§11) After removing the culture medium from the 6-well plates, the cells were washed once with PBS (phosphate-buffered saline) and then trypsinized. The cells were collected in 1.5 mL microcentrifuge tubes by centrifugation. […]\n(§12) The protein concentration was determined using a BCA Protein Assay Kit. […] After thoroughly mixing, the plate was incubated at 60° C. for 10 min, and the absorbance was measured at 562 nm. Record the readings and plot a standard curve based on the standard concentration gradient. The protein concentration of the samples was calculated by substituting the sample absorbance values into the standard curve. […]"}, "GLi2": {"tested_on": "GLi2", "assay": "Western blot: degradation of TGF-β-induced GLi2 protein in A549 cells", "format": "cell-based, Human", "details": "24-hour treatment, FIG. 43", "protocol": "as §8, §9, §10, §11, §12"}, "α-SMA": {"tested_on": "α-SMA", "assay": "Western blot: degradation of TGF-β-induced α-SMA protein in A549 cells", "format": "cell-based, Human", "details": "24-hour treatment, FIG. 43", "protocol": "as §8, §9, §10, §11, §12"}, "[3]": {"assay": "Body weight and clinical observations during the rat pulmonary fibrosis study", "format": "in vivo, SD rats", "details": "Group 5, 40 mg/kg, after administration, FIGS. 44 and 45", "from_the_text": "as §1\nas §3, with “analgesia. […]” for “analgesia.”"}, "[4]": {"details": "100 mg/kg, once daily from Day 8, p<0.001"}, "[5]": {"details": "both doses, 20 mg/kg and 40 mg/kg, twice daily from Day 8, p<0.001"}}, "note": "“Also recorded” adds a separate entry of the source.", "data": [{"smiles": "COC(=O)c1ccc2c(c1)NC(=O)/C2=C(\\Nc1ccc(N(C)C(=O)CN2CCN(C)CC2)cc1)c1ccccc1", "note": "[Nintedanib, nintedanib, reference compound]", "values": [{"measurement": "inflammatory cell infiltration and injury in terminal bronchioles and small pulmonary arteries within and surrounding fibrotic lesions, compared to model group (in words)", "setting": "[1]; [4]", "result": "significantly reduced; also recorded: amelioration"}, {"measurement": "Injury Score of Terminal Bronchioles and Accompanying Small Pulmonary Arteries, At Margin Lesion", "setting": "[1]; 100 mg/kg, q.d.", "result": "2.72 ± 0.17"}, {"measurement": "Injury Score of Terminal Bronchioles and Accompanying Small Pulmonary Arteries, Within Lesion", "setting": "[1]; 100 mg/kg, q.d.", "result": "6.24 ± 0.21"}, {"measurement": "pulmonary fibrosis compared to the model group (in words)", "setting": "[2]; [4]", "result": "significantly ameliorated; also recorded: significantly improved"}, {"measurement": "Fibrosis Score (Ashcroft), left lung", "setting": "[2]; 100 mg/kg, q.d.", "result": "2.57 ± 0.09"}]}, {"smiles": "Cc1cnc(-c2cc(N3CCc4nc(N5CCC(O)CC5)ncc4[C@H]3C)ncc2Cl)c(C)c1", "note": "[Compound B-1-1]", "values": [{"measurement": "degradation of TGF-β-induced GLi1 protein (Western blot)", "setting": "GLi1", "result": "effectively degraded"}, {"measurement": "degradation of TGF-β-induced GLi2 protein (Western blot)", "setting": "GLi2", "result": "effectively degraded"}, {"measurement": "degradation of TGF-β-induced α-SMA protein (Western blot)", "setting": "α-SMA", "result": "effectively degraded"}, {"measurement": "Injury Score of Terminal Bronchioles and Accompanying Small Pulmonary Arteries, At Margin Lesion", "setting": "[1]; 20 mg/kg, b.i.d.", "result": "3.50 ± 0.43"}, {"measurement": "Injury Score of Terminal Bronchioles and Accompanying Small Pulmonary Arteries, Within Lesion", "setting": "[1]; 20 mg/kg, b.i.d.", "result": "6.96 ± 0.46"}, {"measurement": "Injury Score of Terminal Bronchioles and Accompanying Small Pulmonary Arteries, At Margin Lesion", "setting": "[1]; 40 mg/kg, b.i.d.", "result": "3.14 ± 0.35"}, {"measurement": "Injury Score of Terminal Bronchioles and Accompanying Small Pulmonary Arteries, Within Lesion", "setting": "[1]; 40 mg/kg, b.i.d.", "result": "6.20 ± 0.47"}, {"measurement": "inflammatory infiltration and pathological injury in terminal bronchioles and small pulmonary arteries within and at the margins of fibrotic lesions, compared to model group (in words)", "setting": "[1]; [5]", "result": "significantly decreased; also recorded: significantly improved"}, {"measurement": "Fibrosis Score (Ashcroft), left lung", "setting": "[2]; 20 mg/kg, b.i.d.", "result": "2.93 ± 0.20"}, {"measurement": "effect in inhibiting the progression of pulmonary fibrosis lesions compared with positive drug nintedanib", "setting": "[2]; 40 mg/kg, BID, versus nintedanib 100 mg/kg, QD", "result": "same excellent effect"}, {"measurement": "Fibrosis Score (Ashcroft), left lung", "setting": "[2]; 40 mg/kg, b.i.d.", "result": "2.62 ± 0.18"}, {"measurement": "pulmonary fibrosis scores / progression compared to the model group (in words)", "setting": "[2]; [5]", "result": "significantly reduced; also recorded: significantly inhibit"}, {"measurement": "body weight gain compared with the model group", "setting": "[3]", "result": "slower rate of weight gain"}]}]}
